Data on two molecules can be found in patent publication US12060351B2, “Thiadiazole IRAK4 inhibitors” (Gilead Sciences, Inc., priority 2018, dated 2024).

Where two headings read alike, the source gives them in different places.

The subject of assay [1] is TNFα. The assay is described as follows: IRAK4 Monocyte TNFα Cell Based Assay (LPS-stimulated, TR-FRET TNFα detection). The following applies: Homo sapiens, Monocyte, read-out: EC50 MONO TNF HTRF. Further details: species or system human. In outline:
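Monocytes (5,000 cells/well) treated with compound (0.1% DMSO) for 1 hour at 37° C, then stimulated with 50 pg/ml LPS for 4 hours. TNFα in medium quantified by TR-FRET two-antibody detection after overnight room-temperature incubation. Percent of control calculated against unstimulated (0%) and LPS-stimulated (100%) cells.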

Assay [2] addresses T1, IRAK4 enzyme (Homo sapiens, UniProt Q9NWZ3).
T1 construct: purchased Carna Biosciences, Chuo-ku, Kobe, Japan
T1 sequence (Q9NWZ3 1-460): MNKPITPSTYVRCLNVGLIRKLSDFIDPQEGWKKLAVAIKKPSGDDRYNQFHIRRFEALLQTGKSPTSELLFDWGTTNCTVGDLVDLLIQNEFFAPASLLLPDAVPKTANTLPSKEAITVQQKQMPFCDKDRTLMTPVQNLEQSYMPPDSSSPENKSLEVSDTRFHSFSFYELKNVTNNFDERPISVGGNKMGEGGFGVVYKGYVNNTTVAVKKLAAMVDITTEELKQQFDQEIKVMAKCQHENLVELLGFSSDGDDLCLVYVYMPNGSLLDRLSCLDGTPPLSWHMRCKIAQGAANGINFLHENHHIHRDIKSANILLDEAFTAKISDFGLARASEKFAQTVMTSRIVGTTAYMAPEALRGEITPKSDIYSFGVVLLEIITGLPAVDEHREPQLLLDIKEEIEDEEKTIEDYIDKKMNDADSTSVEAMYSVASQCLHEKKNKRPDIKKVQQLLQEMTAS
The assay is described as follows: IRAK4 Biochemical Assay (TR-FRET, STK1 KinEASE). The following applies: 500 μM ATP, Table 2 second part (compounds 33-343), read-out: IC50 IRAK4-HTBS. In outline:
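Human IRAK4 (0.75 nM) preincubated 15 min with compound and 2 μM STK1 peptide, then reacted 120 min at room temperature with 500 μM ATP in HEPES pH 7.0 buffer with MgCl2 and DTT. EDTA stop with Cryptate anti-phosphopeptide antibody and tracer, 60 min; TR-FRET read as 665/615 nm ratio.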

As for `CC(=O)N[C@@H]1[C@@H]2C[C@H]1CN(c1nnc(-c3cnc(-c4ccc5cc(C#N)cnn45)cc3N[C@H](C)C#N)s1)C2` [Example 174, N-((1R,5S,6S)-3-(5-(4-(((R)-1-cyanoethyl)amino)-6-(3-cyanopyrrolo[1,2-b]pyridazin-7-yl)pyridin-3-yl)-1,3,4-thiadiazol-2-yl)-3-azabicyclo[3.1.1]heptan-6-yl)acctamide], in assay [1], the EC50 is 3.5 nM. The IC50 in assay [2] turned out to be 0.49 nM.
On to `CC(C)Nc1cc(-c2ccc3cc(C#N)cnn23)ncc1-c1nnc(N2C[C@H]3CC[C@@H](C2)[C@@H]3N)s1` [Example 60, 7-(5-(5-((1R,5S,8s)-8-amino-3-azabicyclo[3.2.1]octan-3-yl)-1,3,4-thiadiazol-2-yl)-4-(isopropylamino)pyridin-2-yl)pyrrolo[1,2-b]pyridazine-3-carbonitrile], for which, in assay [1] (human monocytes, LPS-stimulated, Table 2 second part (compounds 33-343)), the EC50 was found to be 8.5 nM. Besides, the IC50 in assay [2] is 0.97 nM.
